Measurements as given in patent US20250064990A1, “METHODS OF SCREENING FOR VMAT2 INHIBITORS” (Neurocrine Biosciences, Inc., priority 2021, published 2025).

Assay: NBI-750142 concentration in cynomolgus monkey plasma by LC-MS/MS
Assay type: in vivo, cynomolgus monkeys (Macaca fascicularis)
Conditions: for concentration at 30 min / concentration at 60 min / concentration at 90 min / concentration at 120 min / concentration at 150 min / concentration at 180 min / concentration at 1 min: cynomolgus monkey, intravenous
Description: During each scan, whole blood PK samples were collected (in K2 EDTA tubes) at pre-dose (−5 min), and post-dose at 1 (end of bolus), 30, 60 (just prior to [^18F]AV-133 radiopharmaceutical administration), 90, 120, 150, 180 (end of scan) minutes after test article administration. PK samples were approximately 1 mL each (8 mL total, including pre-dose sample). PK sample collection times were relative to start of NBI-750142 bolus administration.
NBI-750142 concentration in cynomolgus monkey plasma samples was analyzed using a qualified LC-MS/MS bioanalytical method. […] Plasma samples were processed using protein precipitation extraction with 0.1% formic acid in acetonitrile and the addition of stable deuterium isotope labeled internal standard NBI-750142-D6. Processed samples were chromatographically separated on a C18 column and coupled to a Sciex API 4000 triple quadrupole mass spectrometer.
The method used in this study was qualified for a range of 0.250 to 250 ng/mL based on the analysis of 100 μL of plasma by LC-MS-MS. Quantitation was performed using a weighted 1/×2 linear least squares regression analysis generated from calibration standards. The protein precipitation extraction procedure began with the addition of internal standard solution (20.0 μL of approximately 100 ng/mL deuterated NBI-750142-D6). After adding 400 μL of acetonitrile/formic acid (1000:1.00), the tubes were sealed, vortexed and centrifuged. Subsequently, 100 μL of the supernatant was transferred to a new plate containing 400 μL of water/formic acid (1000:1.00). […] A triple quadrupole mass spectrometer (Sciex API 4000) equipped with TurboIonSpray source was used in the positive ion mode. Quantitation was based on multiple reaction monitoring (MRM) of m/z transitions of NBI-750142 and NBI-750142-D6.

[1] = 0.026 mg/kg, GC786, 0.026 mg/kg i.v.
[2] = 0.084 mg/kg, EC865, 0.084 mg/kg i.v.
[3] = 0.26 mg/kg, GC786, 0.26 mg/kg i.v.
[4] = 0.26 mg/kg, LC206, 0.26 mg/kg i.v.
[5] = 0.52 mg/kg, EC865, 0.52 mg/kg i.v.
[6] = 0.78 mg/kg, GC786, 0.78 mg/kg i.v.

What does the source list for COc1cc2c(cc1OC)[C@H]1CN(C)[C@H](CC(C)(C)C)CN1CC2 [NBI-750142]?
Mean ng/mL NBI-750142 Concentration during PET Scan (60-180 min) (EC865, 0.084 mg/kg i.v.): 6.4 ng/mL; Mean ng/mL NBI-750142 Concentration during PET Scan (60-180 min) (EC865, 0.52 mg/kg i.v.): 37.6 ng/mL; Mean ng/mL NBI-750142 Concentration during PET Scan (60-180 min) (GC786, 0.026 mg/kg i.v.): 2.9 ng/mL; ng/mL NBI-750142 at 1 min (GC786, 0.026 mg/kg i.v., BLQ = <0.250 ng/mL): BLQ; Mean ng/mL NBI-750142 Concentration during PET Scan (60-180 min) (GC786, 0.26 mg/kg i.v.): 12.3 ng/mL; Mean ng/mL NBI-750142 Concentration during PET Scan (60-180 min) (GC786, 0.78 mg/kg i.v.): 74.5 ng/mL; Mean ng/mL NBI-750142 Concentration during PET Scan (60-180 min) (LC206, 0.26 mg/kg i.v.): 35.7 ng/mL; concentration at 30 min [1]: 2.31 ng/mL; concentration at 60 min [1]: 2.24 ng/mL; concentration at 90 min [1]: 2.56 ng/mL; concentration at 120 min [1]: 2.69 ng/mL; concentration at 150 min [1]: 3.69 ng/mL; concentration at 180 min [1]: 3.1 ng/mL; concentration at 1 min [2]: 108 ng/mL; concentration at 30 min [2]: 7.42 ng/mL; concentration at 60 min [2]: 6.04 ng/mL; concentration at 90 min [2]: 5.91 ng/mL; concentration at 120 min [2]: 5.85 ng/mL; concentration at 150 min [2]: 7.34 ng/mL; concentration at 180 min [2]: 7.07 ng/mL; concentration at 1 min [3]: 102 ng/mL; concentration at 30 min [3]: 18.4 ng/mL; concentration at 60 min [3]: 10.6 ng/mL; concentration at 90 min [3]: 6.85 ng/mL; concentration at 120 min [3]: 13.4 ng/mL; concentration at 150 min [3]: 15.2 ng/mL; concentration at 180 min [3]: 15.3 ng/mL; concentration at 1 min [4]: 119 ng/mL; concentration at 30 min [4]: 31 ng/mL; concentration at 60 min [4]: 26 ng/mL; concentration at 90 min [4]: 38.3 ng/mL; concentration at 120 min [4]: 41.1 ng/mL; concentration at 150 min [4]: 37.7 ng/mL; concentration at 180 min [4]: 35.2 ng/mL; concentration at 1 min [5]: 295 ng/mL; concentration at 30 min [5]: 45.1 ng/mL; concentration at 60 min [5]: 36.9 ng/mL; concentration at 90 min [5]: 35.3 ng/mL; concentration at 120 min [5]: 36.2 ng/mL; concentration at 150 min [5]: 38.4 ng/mL; concentration at 180 min [5]: 41.3 ng/mL; concentration at 1 min [6]: 186 ng/mL; concentration at 30 min [6]: 63 ng/mL; concentration at 60 min [6]: 65.2 ng/mL; concentration at 90 min [6]: 69.9 ng/mL; concentration at 120 min [6]: 75.1 ng/mL; concentration at 150 min [6]: 76 ng/mL; concentration at 180 min [6]: 86.5 ng/mL
